Several values for one entry are separate records, joined by “and”; a condition that tells them apart may be missing. Identical values can stand only once.

For the first assay, the target named is T1, human CTPS1 (Homo sapiens, UniProt P17812).
T1 construct: purchased Proteros biostructures GmbH
T1 sequence (P17812 1-591): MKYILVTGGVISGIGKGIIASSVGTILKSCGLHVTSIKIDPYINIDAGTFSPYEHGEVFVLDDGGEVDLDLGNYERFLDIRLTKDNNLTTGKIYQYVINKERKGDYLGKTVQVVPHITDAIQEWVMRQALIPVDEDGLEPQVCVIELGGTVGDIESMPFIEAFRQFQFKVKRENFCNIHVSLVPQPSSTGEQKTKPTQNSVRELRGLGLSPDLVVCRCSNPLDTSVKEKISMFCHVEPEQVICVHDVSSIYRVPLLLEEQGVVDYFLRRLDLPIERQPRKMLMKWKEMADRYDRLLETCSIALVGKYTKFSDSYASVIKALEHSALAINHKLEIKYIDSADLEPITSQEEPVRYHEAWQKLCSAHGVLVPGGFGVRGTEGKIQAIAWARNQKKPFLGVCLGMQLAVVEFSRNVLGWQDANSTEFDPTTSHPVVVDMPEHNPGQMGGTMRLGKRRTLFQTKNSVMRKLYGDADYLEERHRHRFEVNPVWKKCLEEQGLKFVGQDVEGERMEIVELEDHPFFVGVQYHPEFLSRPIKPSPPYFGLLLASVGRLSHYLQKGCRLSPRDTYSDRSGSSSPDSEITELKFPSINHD
The experiment in a line: Human CTPS1 enzyme inhibition (ADP-Glo Max assay). The note with it: Table 17, 25° C., read-out: CTPS1 (Human CTPS1 Enzyme Inhibition data grouped by potency range). The class given is biochemical. In a few lines: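 ADP-Glo Max luminescence detection of ATP-to-ADP conversion by the enzyme, in 50 mM Tris, 10 mM MgCl2, 0.01% Tween-20, pH 8.0, with 2 mM L-cysteine added fresh. Enzyme preincubated with compound 10 minutes at 25° C. Percentage inhibition calculated per compound concentration.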
As for `CCC(C(=O)Nc1ccc(-c2cncc(OC(F)F)c2)cc1)c1csc(NS(=O)(=O)C2CC2)n1` (centres unmarked) [T210], the IC50 is less than 100 nM.

Regarding `CCC(C(=O)Nc1ccc(-c2cncc(OCC(F)(F)F)c2)cc1)c1csc(NS(=O)(=O)C2CC2)n1` (centres unmarked) [T211], the IC50 was < 100 nM and 100 to 1000 nM.

In the case of `CCC(C(=O)Nc1ccc(-c2cncc(OCC(F)(F)F)c2)cc1F)c1csc(NS(=O)(=O)C2CC2)n1` (centres unmarked) [T212], the IC50 was less than 100 nM.

In the case of `O=C(Nc1ccc(-c2cccnc2)cc1)C1CCc2sc(NS(=O)(=O)C3CC3)nc21` (centres unmarked) [T213], the IC50 lay within 100 to 1000 nM.

For the molecule `COC(C(=O)Nc1ccc(-c2cncc(C(F)(F)F)n2)cn1)c1csc(NS(=O)(=O)C2CC2)n1` (centres unmarked) [T214], the IC50 was less than 100 nM.

As for `N#Cc1cncc(-c2ccc(NC(=O)C3CCc4sc(NS(=O)(=O)C5CC5)nc43)cc2)c1` (centres unmarked) [T217], the IC50 is less than 100 nM.

Turning to `O=C(Nc1ccc(-c2cncc(F)c2)cc1)C1CCc2sc(NS(=O)(=O)C3CC3)nc21` (centres unmarked) [T218], the IC50 fell in the range of 100 to 1000 nM.

For the molecule `COC(C(=O)Nc1ccc(-c2cccnc2)cc1)c1csc(NS(=O)(=O)C2CC2)n1` (centres unmarked) [T219], the IC50 is less than 100 nM.

Take `COC(C(=O)Nc1ccc(-c2cccnc2)cc1F)c1csc(NS(=O)(=O)C2CC2)n1` (centres unmarked) [T220]: the IC50 is less than 100 nM.

On to `CCC(C(=O)Nc1ccc(-c2cccnc2)cc1Cl)c1csc(NS(=O)(=O)C2CC2)n1` (centres unmarked) [T221], for which the IC50 is less than 100 nM.

As for `CC(C)(C(=O)Nc1ccc(-c2cnccn2)cc1F)c1csc(NS(=O)(=O)C2CC2)n1` [T274], the IC50 is less than 100 nM.

Consider `Cc1ncc(-c2ccc(NC(=O)C(C)(C)c3csc(NS(=O)(=O)C4CC4)n3)cc2)nc1Cl` [T277], for which the IC50 was in the range of 100 to 1000 nM.

As for `CCC(C(=O)Nc1ccc(-c2cncc(C3CC3)n2)cc1)c1csc(NS(=O)(=O)C2CC2)n1` (centres unmarked) [T291], the IC50 was less than 100 nM.

Consider `Cc1sc(NS(=O)(=O)C2CC2)nc1C(C)(C)C(=O)Nc1ccc(-c2cncc(Cl)c2)cc1` [T314], for which the IC50 lay in the range of 100 to 1000 nM.

Consider `CCC(C(=O)N(C)c1ccc(-c2cccnc2)cc1)c1csc(NS(=O)(=O)C2CC2)n1` (centres unmarked) [T315], for which the IC50 fell in the range of 100 to 1000 nM.

In the case of `CCC(C(=O)N(C)c1ccc(-c2cncc(C#N)c2)cc1)c1csc(NS(=O)(=O)C2CC2)n1` (centres unmarked) [T316], the IC50 lay in the range of 100 to 1000 nM.

Turning to `CCOc1cncc(-c2ccc(NC(=O)C(C)(C)c3nc(NS(=O)(=O)C4CC4)sc3C)cc2)n1` [T317], the IC50 fell in the range of 100 to 1000 nM.

The same assay, now with this note: Table 18, additional potency data, 25° C., read-out: CTPS1 (Human CTPS1 Enzyme Inhibition data grouped by potency range).
Consider `CCOc1cncc(-c2ccc(NC(=O)C(NC(C)=O)c3csc(NS(=O)(=O)C4CC4)n3)cc2)n1` (centres unmarked) [T326, 2-acetamido-2-(2-(cyclopropanesulfonamido)thiazol-4-yl)-N-(4-(6-ethoxypyrazin-2-yl)phenyl)acetamide], for which the IC50 was less than 100 nM.

In the case of `CCOc1cncc(-c2ccc(NC(=O)C(NC(=O)OC)c3csc(NS(=O)(=O)C4CC4)n3)cc2)n1` (centres unmarked) [T327, methyl (1-(2-(cyclopropanesulfonamido)thiazol-4-yl)-2-((4-(6-ethoxypyrazin-2-yl)phenyl)amino)-2-oxoethyl)carbamate], the IC50 was less than 100 nM.

Regarding `CCOc1cncc(-c2ccc(NC(=O)C(c3csc(NS(=O)(=O)C4CC4)n3)N(C)C)cc2)n1` (centres unmarked) [T328, 2-(2-(cyclopropanesulfonamido)thiazol-4-yl)-2-(dimethylamino)-N-(4-(6-ethoxypyrazin-2-yl)phenyl)acetamide], the IC50 is less than 100 nM.

As for `CCOc1cncc(-c2ccc(NC(=O)C(CCO)c3csc(NS(=O)(=O)C4CC4)n3)cc2)n1` (centres unmarked) [T329, 2-(2-(cyclopropanesulfonamido)thiazol-4-yl)-N-(4-(6-ethoxypyrazin-2-yl)phenyl)-4-hydroxybutanamide], the IC50 is less than 100 nM.

With `COCCS(=O)(=O)Nc1nc(C(C)(C)C(=O)Nc2ccc(-c3cncc(C(F)(F)F)n3)cn2)cs1` [T332, 2-(2-((2-methoxyethyl)sulfonamido)thiazol-4-yl)-2-methyl-N-(5-(6-(trifluoromethyl)pyrazin-2-yl)pyridin-2-yl)propanamide], the IC50 is 100 to 1000 nM.

For the molecule `CC(C)(C(=O)Nc1ccc(-c2cccnc2)cc1)c1csc(NS(=O)(=O)C2CCCC2)n1` [T333, 2-(2-(cyclopentanesulfonamido)thiazol-4-yl)-2-methyl-N-(4-(pyridin-3-yl)phenyl)propanamide], the IC50 lay within 1000 to 10000 nM.

As to `CC(C)(C(=O)Nc1ccc(-c2cncc(C(F)(F)F)n2)cc1)c1csc(NS(=O)(=O)C2CCCC2)n1` [T334, 2-(2-(cyclopentanesulfonamido)thiazol-4-yl)-2-methyl-N-(4-(6-(trifluoromethyl)pyrazin-2-yl)phenyl)propanamide], the IC50 lay within 100 to 1000 nM.

For the molecule `CCOc1cncc(-c2ccc(NC(=O)C(C)(C)c3csc(NS(=O)(=O)C4CCCC4)n3)cc2)n1` [T335, 2-(2-(cyclopentanesulfonamido)thiazol-4-yl)-N-(4-(6-ethoxypyrazin-2-yl)phenyl)-2-methylpropanamide], the IC50 lay in the range of 100 to 1000 nM.

Turning to `CC(C)c1cncc(-c2ccc(NC(=O)C(C)(C)c3csc(NS(=O)(=O)C4CC4)n3)nc2)n1` [T336, 2-(2-(cyclopropanesulfonamido)thiazol-4-yl)-N-(5-(6-isopropylpyrazin-2-yl)pyridin-2-yl)-2-methylpropanamide], the IC50 was in the range of 100 to 1000 nM.

Turning to `CCOc1cncc(-c2ccc(NC(=O)C(C)(C)c3csc(NS(=O)(=O)C4CC4)n3)nc2)c1` [T337, 2-(2-(cyclopropanesulfonamido)thiazol-4-yl)-N-(5′-ethoxy-[3,3′-bipyridin]-6-yl)-2-methylpropanamide], the IC50 was less than 100 nM.

On to `CC(C)(O)c1cncc(-c2ccc(NC(=O)C(C)(C)c3csc(NS(=O)(=O)C4CC4)n3)nc2)n1` [T338, 2-(2-(cyclopropanesulfonamido)thiazol-4-yl)-N-(5-(6-(2-hydroxypropan-2-yl)pyrazin-2-yl)pyridin-2-yl)-2-methylpropanamide], for which the IC50 lay in the range of 1000 to 10000 nM.

As for `COC(C)(C)c1cncc(-c2ccc(NC(=O)C(C)(C)c3csc(NS(=O)(=O)C4CC4)n3)nc2)n1` [T339, 2-(2-(cyclopropanesulfonamido)thiazol-4-yl)-N-(5-(6-(2-methoxypropan-2-yl)pyrazin-2-yl)pyridin-2-yl)-2-methylpropanamide], the IC50 lay in the range of 1000 to 10000 nM.

As for `Cc1sc(NS(=O)(=O)C2CC2)nc1C(C)(C)C(=O)Nc1ccc(-c2cncc(C(F)(F)F)n2)cn1` [T340, 2-(2-(cyclopropanesulfonamido)-5-methylthiazol-4-yl)-2-methyl-N-(5-(6-(trifluoromethyl)pyrazin-2-yl)pyridin-2-yl)propanamide], the IC50 was in the range of 100 to 1000 nM.

For `CCOc1cncc(-c2ccc(NC(=O)C(C)(C)c3csc(NS(=O)(=O)C4CC4)n3)nc2)n1` [T341, 2-(2-(cyclopropanesulfonamido)thiazol-4-yl)-N-(5-(6-ethoxypyrazin-2-yl)pyridin-2-yl)-2-methylpropanamide], the IC50 was less than 100 nM.

For the molecule `CCOc1cncc(-c2ccc(NC(=O)C(C)(C)c3nc(NS(=O)(=O)C4CC4)sc3C)nc2)n1` [T342, 2-(2-(cyclopropanesulfonamido)-5-methylthiazol-4-yl)-N-(5-(6-ethoxypyrazin-2-yl)pyridin-2-yl)-2-methylpropanamide], the IC50 is less than 100 nM.

As to `CC(C)(C(=O)Nc1ccc(-c2cncc(Cl)c2)cc1C(F)(F)F)c1csc(NS(=O)(=O)C2CC2)n1` [T343, N-(4-(5-chloropyridin-3-yl)-2-(trifluoromethyl)phenyl)-2-(2-(cyclopropanesulfonamido)thiazol-4-yl)-2-methylpropanamide], the IC50 was less than 100 nM.

As for `CC(C)(C(=O)Nc1ccc(-c2cncc(C#N)c2)cc1C(F)(F)F)c1csc(NS(=O)(=O)C2CC2)n1` [T344, N-(4-(5-cyanopyridin-3-yl)-2-(trifluoromethyl)phenyl)-2-(2-(cyclopropanesulfonamido)thiazol-4-yl)-2-methylpropanamide], the IC50 was less than 100 nM.

For the molecule `CC(C)(C(=O)Nc1ccc(-c2cncc(F)c2)cc1C(F)(F)F)c1csc(NS(=O)(=O)C2CC2)n1` [T345, 2-(2-(cyclopropanesulfonamido)thiazol-4-yl)-N-(4-(5-fluoropyridin-3-yl)-2-(trifluoromethyl)phenyl)-2-methylpropanamide], the IC50 was less than 100 nM.

In the case of `CC(C)(C(=O)Nc1ccc(-c2cncc(C(F)(F)F)n2)cc1C(F)(F)F)c1csc(NS(=O)(=O)C2CC2)n1` [T346, 2-(2-(cyclopropanesulfonamido)thiazol-4-yl)-2-methyl-N-(2-(trifluoromethyl)-4-(6-(trifluoromethyl)pyrazin-2-yl)phenyl)propanamide], the IC50 fell in the range of 100 to 1000 nM.

With `CCOc1cncc(-c2ccc(NC(=O)C(C)(C)c3csc(NS(=O)(=O)C4CC4)n3)c(C(F)(F)F)c2)n1` [T347, 2-(2-(cyclopropanesulfonamido)thiazol-4-yl)-N-(4-(6-ethoxypyrazin-2-yl)-2-(trifluoromethyl)phenyl)-2-methylpropanamide], the IC50 was less than 100 nM.

As to `CCc1cc(-c2cncc(Cl)c2)cc(CC)c1NC(=O)C(C)(C)c1csc(NS(=O)(=O)C2CC2)n1` [T348, N-(4-(5-chloropyridin-3-yl)-2,6-diethylphenyl)-2-(2-(cyclopropanesulfonamido)thiazol-4-yl)-2-methylpropanamide], the IC50 lay within 100 to 1000 nM.

The record behind these values is patent US11655246B2, “Aminothiazole compounds as inhibitors of CTPS1” (STEP PHARMA S.A.S., priority 2017, dated 2023).
